Experimental data published in ChEMBL document CHEMBL1201862, “PubChem BioAssay data set” (2004).
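Cultured in 96-well plates, cells were exposed to test compound for 48 hours across five concentrations. GI50: concentration for 50% inhibition of growth.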 Activity calls are given as the source filed them. No stated cut-off is given here; in the data, active = GI50 up to about 1.1 µM and inactive = higher.

Assays:
Experiment in all cases: growth of human tumour cells (NCI), 48 h
[1] = system: LOX IMVI
[2] = system: OVCAR-5
[3] = system: SNB-75
[4] = system: RPMI-8226
[5] = system: SK-MEL-28
[6] = system: NCI-H23
[7] = system: SN12C
[8] = system: HOP-92
[9] = system: SK-MEL-2
[10] = system: HL-60
[11] = system: A549
[12] = system: MDA-MB-435
[13] = system: UO-31
[14] = system: T47D
[15] = system: KM12
[16] = system: Hs-578T
[17] = system: SK-OV-3
[18] = system: UACC-62
[19] = system: K562
[20] = system: A498

Measured: GI50

Cc1cc(=O)n2nc(CCl)sc2n1
inactive: [1] 4.19 µM | [2] 15 µM | [3] 10.8 µM | [4] 10.6 µM | [5] 13.2 µM | [6] 23.2 µM | [7] 14.3 µM | [8] 12.6 µM | [9] 10.5 µM | [10] 17.3 µM | [11] 16.5 µM | [12] 12.7 µM | [13] 14.3 µM | [14] 15.3 µM | [15] 12.1 µM | [16] 17 µM | [17] 15.5 µM | [18] 14.4 µM | [19] 17.8 µM

c1cc2c3c(c1)[C@@H]1O[C@@H]1c1cccc(c1-3)[C@@H]1O[C@H]21
inactive: [1] 3.08 µM | [2] 16.5 µM | [3] 20.9 µM | [5] 15.7 µM | [6] 16.4 µM | [7] 19.7 µM | [8] 20.8 µM | [9] 17.4 µM | [20] 63.8 µM | [11] 31.6 µM | [12] 14.3 µM | [13] 14.6 µM | [14] 20.5 µM | [15] 17.1 µM | [16] 17.6 µM | [17] > 100 µM | [18] 16.5 µM | [19] 17.7 µM

S=C(NCCc1ccccn1)c1nc[nH]c1C(=S)NCCc1ccccn1
inactive: [1] 20.7 µM | [2] > 100 µM | [3] 27.5 µM | [4] 26 µM | [5] 52.4 µM | [6] 39.4 µM | [7] 68.5 µM | [8] 53.6 µM | [9] 47.8 µM | [20] > 100 µM | [11] 32.3 µM | [12] 30.1 µM | [13] 29 µM | [14] 23.5 µM | [15] 24 µM | [16] 20.7 µM | [17] > 100 µM | [18] 22.7 µM | [19] 40.8 µM

O=C1C(NS(=O)(=O)c2ccccc2)=C(n2ccnc2)C(=O)c2ccccc21
inactive: [1] > 100 µM | [2] > 100 µM | [3] 4.44 µM | [4] > 100 µM | [5] > 100 µM | [6] > 100 µM | [7] > 100 µM | [8] > 100 µM | [9] > 100 µM | [10] > 100 µM | [11] > 100 µM | [12] > 100 µM | [13] > 100 µM | [14] > 100 µM | [15] > 100 µM | [16] > 100 µM | [17] > 100 µM | [18] > 100 µM | [19] > 100 µM

COC(=O)C12C3C4(C(=O)OC)C1C1(C(=O)OC)C2C3(C(=O)OC)C41C(=O)N(C(C)C)C(C)C (stereo not given)
inactive: [1] > 100 µM | [2] > 100 µM | [3] > 100 µM | [5] > 100 µM | [6] > 100 µM | [7] > 100 µM | [8] > 100 µM | [9] > 100 µM | [20] > 100 µM | [10] > 100 µM | [11] > 100 µM | [12] > 100 µM | [13] > 100 µM | [14] > 100 µM | [15] > 100 µM | [16] > 100 µM | [18] > 100 µM | [19] > 100 µM

C=C(C)CC1=C(C(=S)NCCO[Si](C)(C)C(C)(C)C)C(OCC)(OCC)C1=O
inactive: [1] 15.8 µM | [2] 14 µM | [3] 14.7 µM | [5] 15.5 µM | [6] 16.9 µM | [7] 19.7 µM | [8] 29.8 µM | [9] 17 µM | [20] 21.7 µM | [10] > 100 µM | [11] 15.2 µM | [12] 16.9 µM | [13] 18.5 µM | [14] 11.4 µM | [15] 16.7 µM | [16] 24.8 µM | [17] 18.2 µM | [18] 17.7 µM

COc1cc(OC)c(-c2ccc(OCc3ccccc3)c3c(OC)cc(C)cc23)c2c1C(C)=N[C@H](C)C2
inactive: [1] 1.88 µM | [2] 2.52 µM | [3] 2.29 µM | [4] 1.44 µM | [5] 2.36 µM | [6] 2.36 µM | [7] 2.04 µM | [8] 1.64 µM | [9] 2.25 µM | [20] 2.16 µM | [10] 2.2 µM | [11] 2.3 µM | [12] 2.3 µM | [13] 1.14 µM | [15] 2.09 µM | [16] 2.29 µM | [17] 2.19 µM | [18] 2.1 µM | [19] 1.55 µM
